Experimental data as given in paper PMC3479139, “Diverse Small Molecule Inhibitors of Human Apurinic/Apyrimidinic Endonuclease APE1 Identified from a Screen of a Large Public Collection” (PLoS ONE, 2012).

Legend:
[1] = biological target: double-stranded 17-mer DNA fragment; test: ThO (Thiazole Orange) DNA displacement assay; format: binding; details: read-out: ThO-DNA binding IC50;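 also: miniaturized displacement of the intercalating dye from unlabeled duplex DNA, used to flag nonspecific DNA binders, chiefly intercalators, groove binders may be missed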
[2] = biological target: T1, APE1 (Homo sapiens, UniProt P27695); test: Fluorogenic kinetic qHTS APE1 incision assay (primary screen and retest of cherrypicked samples); format: biochemical;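 also: purified APE1 cleaving a fluorophore/dark-quencher labelled 17-mer duplex DNA bearing a tetrahydrofuran AP site, fluorescence rise followed kinetically over the first 2 min, inhibition normalized to controls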
T1 construct: made in house

[3] = system: HeLa cells; test: MMS potentiation assay (CellTiter Glo viability); format: cell-based, human; set-up: key: N.A., no activity observed; P, positive; I, inconclusive; N.T., not tested; details: for MMS Assay: potentiation of the genotoxic effect of methylmethane sulfonate
Method: HeLa cells were plated at 6000 cells/well in DMEM culture medium containing 10% FBS into white solid bottom 384-well cell culture plates. The plates were incubated at 37°C overnight for cell attachment, followed by media replacement. The fresh medium contained serial dilutions of compounds of interest in the presence (0.4 mM final) or absence of MMS. The plates were incubated for 24 h at 37°C. Cell viability was determined by luminescence detection after an addition of 15 µL of CellTiter Glo reagent (Promega, Madison, WI). Percent viability was calculated for each concentration of compound tested in duplicate by relating the corresponding luminescence to that of a negative DMSO vehicle control. MMS potentiation trends were defined as follows: negative (-), if cell viability in the compound-plus-MMS treatment was the same as that of the DMSO-plus-MMS control (overlapping dose-response curves); inconclusive (I), if the shift in the cell viability dose-response upon MMS inclusion relative to compound-alone was less than 30%; and positive (P), if the difference between the compound-plus-MMS and compound-alone curves was at least 30%, and maintained within at least a two-fold compound concentration span.
To examine the biological prospects of the top compounds, we tested their ability to inhibit APE1 DNA repair activity by assessing enhancement of MMS toxicity in mammalian cells. MMS creates methylated-base damage to genomic DNA, which, when excised by an alkylpurine DNA glycosylase, results in a high number of cytotoxic AP sites. We compared the viability of HeLa cells exposed to a dilution series of inhibitor alone to a combination of a fixed MMS concentration with the same dilution series of inhibitor by using a standard CellTiter Glo luminescence assay. This technique measures the number of viable cells in culture based on quantitation of the ATP present, which signals the presence of metabolically active cells. The assay was further optimized for 384-well plates, allowing a high-throughput testing of multiple hits at multiple concentrations, a scope of investigation previously impossible due to the very low throughput of the traditionally applied colony formation assay.
From the 223 compounds found positive in the gel-based APE1 assays, exclusion of the most promiscuous hits, that is, those that were both DNA binders and EndoIV-inhibitory, yielded a set of 170 compounds (Figure 3). This shortened group of hits was tested in the cell-based potentiation assay for their ability to dose-dependently enhance sensitivity of HeLa cells to the alkylating agent MMS.

[4] = biological target: T1, APE1; test: Fluorescence polarization (FP) displacement assay of APE1 binding to AP-DNA probe; details: read-out: FP IC50;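 also: TAMRA 5′-labeled duplex DNA with THF abasic site (5 nM) and APE1 (20 nM), Mg2+-free buffer, 15 min at room temperature, inhibition seen as lowered polarization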
Method: Double-stranded oligodeoxynucleotide containing tetrahydrofuran (THF) abasic site labeled with TAMRA at the 5′-end was used as the labeled binding probe. Inhibition of APE1 binding to labeled probe was detected by a decrease in the fluorescence polarization (FP) of the fluorophore. Briefly, 4 µL mixture of 20 nM APE1 and 5 nM probe contained in the enzymatic assay buffer from which Mg^2+ was omitted, was dispensed into 1536-well Greiner black solid bottom plates. Compounds (23 nL) were transferred via pintool, and after a 15-minute incubation at room temperature, fluorescence polarization was measured in a ViewLux High-throughput CCD imager (480 nm excitation and 540 nm emission) to determine the degree of probe displacement caused by the test compounds.

[5] = biological target: T2, E. coli Endo IV (Escherichia coli, UniProt P0A6C1); test: E. coli Endo IV profiling counterscreen; format: biochemical; details: read-out: EndoIV IC50;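 also: selectivity counterscreen of candidate APE1 inhibitors against the bacterial endonuclease Endo IV, run in the same assay format as the primary APE1 high-throughput screen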
T2 construct: made in house
Source text: In order to screen out nonselective compounds, such as non-specific DNA binders and inhibitors of related enzymes, we used a miniaturized ThO DNA displacement assay and a counterscreen against the bacterial endonuclease E. coli Endo IV, respectively, following the previously published protocols [21].
To probe the selectivity of the candidate APE1 inhibitors, we tested them against E. coli EndoIV [36], employing the same assay as used in the HTS.

[6] = biological target: T1, APE1; test: Gel-based radiotracer (32P) APE1 incision assay; format: biochemical; set-up: concentration or dose not given beside the values; details: percent incision shown; entries 1-112;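 also: APE1 incision reactions ran 5 min at 37 °C, with cleaved product and intact substrate resolved electrophoretically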
[7] = biological target: T1, APE1; test: Gel-based APE1 incision assay with fluorescence (TAMRA) detection; format: biochemical
Method: To test the compounds’ inhibitory activity after the primary screen, two assays designed to monitor the cleavage of substrate to product through electrophoretic separation were utilized. The radiotracer incision assay, utilizing a ^32P-labeled substrate, was performed essentially as described [21], [31], [32]. Incision reactions utilizing ^32P-labeled substrate were carried out for 5 min at 37°C. After the addition of an equal volume of stop buffer (0.05% bromophenol blue and xylene cyanol, 20 mM EDTA, 95% formamide), the substrate and product were separated on a standard polyacrylamide denaturing gel and quantified by PhosphorImager analysis [32]. […] APE1 cleavage of the substrate results in a 18-mer TAMRA-labeled fragment which was separated by a non-denaturing polyacrylamide gel electrophoresis and quantitated in a Gel Doc XR imaging system, BioRad (Hercules, CA). The advantage of this assay is that it can be used in a relatively high throughput mode with the inhibitors tested at a range of concentrations (0.17 µM to 125 µM was used here). APE1 (0.15 nM) was added to a reaction mixture of 20 µL containing assay buffer (40 mM HEPES pH 7.5, 50 mM NaCl, 1 mM MgCl2 and 2 mM DTT), and labeled ds DNA substrate (final 75 nM). The mixture was incubated at RT for 15 min, and the reaction was stopped by the addition 20 µL of 2X dye stop solution (10% glycerol, 20 mM EDTA and bromophenol blue). Then 10 µL of the mixture was resolved on 20% polyacrylamide gel in 1X Tris-borate EDTA running buffer at 250 V for 40 min.
To eliminate false positive hits, all 595 confirmed molecules were tested for their ability to inhibit APE1 incision activity using biochemical assays that involve electrophoretic separation of the substrate and cleavage product.

[8] = initial quantitative high-throughput screen, read-out: APE1 qHTS IC50
[9] = retest of cherrypicked sample, read-out: APE1 Retest IC50
[10] = estimated IC50, fluorophore detection, entries 113-223, read-out: F-PAGE Assay IC50
[11] = entries 113-223: fluorophore detection, estimated IC50, read-out: Gel-based electrophoretic separation assay with fluorophore detection, estimated IC50 (column headed Radiotracer Assay (%Activity))

T1 sequence (P27695 whole entry): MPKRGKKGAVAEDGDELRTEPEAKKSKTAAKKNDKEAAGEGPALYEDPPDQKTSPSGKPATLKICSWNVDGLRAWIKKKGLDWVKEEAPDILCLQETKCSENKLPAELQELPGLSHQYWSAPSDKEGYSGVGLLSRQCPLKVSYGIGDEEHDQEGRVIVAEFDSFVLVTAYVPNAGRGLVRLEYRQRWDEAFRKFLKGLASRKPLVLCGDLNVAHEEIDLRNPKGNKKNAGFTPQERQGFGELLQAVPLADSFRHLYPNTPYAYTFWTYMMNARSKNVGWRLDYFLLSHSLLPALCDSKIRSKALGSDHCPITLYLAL

Compound	IC50 [1]	IC50 [2, 8]	IC50 [2, 9]	MMS Assay [3]	IC50 [4]	IC50 [5]	Radiotracer Assay (%Activity) [6]	MMS Assay: potentiation of the genotoxic effect of methylmethane sulfonate [3]	IC50 [7, 10]	IC50 [7, 11]
O=C1/C(=C/C=C/c2ccco2)SC(=S)N1NS(=O)(=O)c1ccccc1 [MLS000778639]	> 57 µM	2.5 µM	3.5 µM	I	> 57 µM	> 57 µM	6%	–	–	–
O=C(O)c1ccccc1-c1ccc(/C=c2\sc3nc4cc(Br)cnc4n3c2=O)o1 [MLS000107874]	> 57 µM	22.4 µM	8.9 µM	I	17.8 µM	> 57 µM	11%	–	–	–
Cc1ccccc1CN1CCN(Cc2cc(=O)c3ccccc3[nH]2)CC1CCO (centres unmarked) [MLS001000225]	> 57 µM	–	–	–	–	> 57 µM	–	I	–	–
COc1c(-c2ccc(O)cc2)oc2cc(O)cc(O)c2c1=O [MLS000877008]	> 57 µM	1.1 µM	2.8 µM	I	> 57 µM	> 57 µM	43%	–	–	–
O=C(COC(=O)/C=C/c1ccco1)Nc1ncc(Cl)cc1Cl [MLS000391557]	> 57 µM	–	–	I	–	> 57 µM	–	–	–	–
CC(C)C(=O)NC(C)C(c1cccs1)N1CCN(c2ccccc2)CC1 (centres unmarked) [MLS000092582]	> 57 µM	–	–	I	–	> 57 µM	–	–	–	–
Cn1cccc1/C=C1\C(=O)NC(=O)N(Cc2ccco2)C1=O [MLS000677191]	> 57 µM	14.1 µM	4.5 µM	I	> 57 µM	> 57 µM	5%	–	–	–
CC(C(=O)O)N1C(=O)/C(=C/C=C/c2ccco2)SC1=S (centres unmarked) [MLS000551724]	> 57 µM	2.8 µM	0.9 µM	I	12.6 µM	> 57 µM	9%	–	–	–
CC(=O)Nc1sc2c(c1-c1nc3ccccc3s1)CCN(C(C)C)C2 [MLS000419194]	> 57 µM	14.1 µM	3.9 µM	P	2.5 µM	–	2%	–	–	–
O=C(NC1CC1)C1CCN(S(=O)(=O)c2cc([N+](=O)[O-])ccc2Cl)CC1 [MLS002162311]	36.3 µM	10.6 µM	32.4 µM	–	> 57 µM	> 57 µM	–	–	8.9 µM	–
CC(=O)c1cccc(OCC(=O)N(C)CC(=O)NCc2ccco2)c1 [MLS002251323]	> 57 µM	9.5 µM	9.1 µM	–	> 57 µM	> 57 µM	–	–	4 µM	–
CCOC(=O)C1CCCN(C(=O)c2cc(-c3ccco3)nc3ccccc23)C1 (centres unmarked) [MLS002245402]	32.4 µM	8.4 µM	18.2 µM	–	> 57 µM	> 57 µM	–	–	4 µM	–
O=C(COC(=O)Cc1cccc(C(F)(F)F)c1)NCc1ccco1 [MLS002169571]	> 57 µM	10.6 µM	45.7 µM	–	> 57 µM	> 57 µM	–	–	7.1 µM	–
Cc1ccc(NC(=O)C(c2ccccc2)N2CCN(CC(=O)N3CCOCC3)CC2)cc1Cl (centres unmarked) [MLS002162303]	> 57 µM	10.6 µM	9.1 µM	–	> 57 µM	> 57 µM	–	–	3.5 µM	–
COc1ccc(S(=O)(=O)N2CCOCC2)cc1NC(=O)c1cccc(-n2cccc2)c1 [MLS001161521]	> 57 µM	3.8 µM	7.3 µM	–	> 57 µM	> 57 µM	–	–	4.5 µM	–
Cc1coc2c(C)c3oc(=O)c(CCC(=O)N[C@@H](C)C(=O)N[C@@H](Cc4ccccc4)C(=O)O)c(C)c3cc12 [MLS001140219]	> 57 µM	13.4 µM	18.2 µM	–	> 57 µM	> 57 µM	–	–	–	20 µM
Cc1sc2ncnc(SCC(=O)Nc3ncccc3O)c2c1C [MLS002181609]	> 57 µM	29.9 µM	10.2 µM	–	20.4 µM	> 57 µM	–	–	–	14.1 µM
Nc1c(/C=C2/C=CC(=O)C(O)=C2)c(=O)nc2sc(CC(=O)N3CCCC3)nn12 [MLS001139292]	> 57 µM	10.6 µM	6.5 µM	–	> 57 µM	> 57 µM	–	–	1 µM	–
COCCN(C(=O)COC(=O)c1cc2c(s1)CCC2)c1c(N)n(Cc2ccccc2)c(=O)[nH]c1=O [MLS001080179]	> 57 µM	0.8 µM	1.1 µM	–	> 57 µM	> 57 µM	–	–	0.3 µM	–
COc1ccc(Cl)cc1NC(=O)CCS(=O)(=O)c1ccc(Br)cc1 [MLS001202289]	45.7 µM	11.9 µM	45.7 µM	–	> 57 µM	> 57 µM	–	–	–	12.6 µM
COC(=O)c1ccn(CC(=O)NC2CCCCC2)n1 [MLS001030262]	> 57 µM	29.9 µM	12.9 µM	–	> 57 µM	> 57 µM	–	–	5.6 µM	–
COc1cccc(NC(=O)CN(C)C(=O)c2cc3c(s2)CCC3)c1 [MLS001142077]	20.4 µM	10.6 µM	32.4 µM	–	> 57 µM	> 57 µM	–	–	–	10 µM
COc1cc(-c2nnc(COC(=O)c3ccc(C)o3)o2)cc(OC)c1OC [MLS001139127]	> 57 µM	23.8 µM	32.4 µM	–	> 57 µM	> 57 µM	–	–	–	14.1 µM
Cc1ccc(C)c(NC(=O)CN(C)C(=O)c2cccc(-n3cccc3)c2)c1 [MLS001161412]	> 57 µM	3 µM	5.8 µM	–	12.9 µM	16.2 µM	–	–	2.8 µM	–
